These results are taken from article PMC11110763, “Carltonine-derived compounds for targeted butyrylcholinesterase inhibition” (RSC Medicinal Chemistry, 2024).

The test concerns the target T1, recombinant BChE (hBChE, E.C. 3.1.1.8) (Homo sapiens, UniProt P06276).
T1 construct: purchased Sigma-Aldrich, Prague, Czech Republic
In words: biochemical. The format is biochemical. The conditions noted are these: for inhibition at 10 µM: read-out: % inhibition of hBChE ± SEM; for IC50: mean ± SEM of three independent measurements, each in triplicate.

Setting [1] is: tested at 10 μM compound concentration.

Read-outs that look alike come from different tables or passages of the source.

The term inhibition denotes how much of the control response was suppressed. As usually defined, the IC50 is the concentration needed to halve the response being measured.

T1 sequence (P06276 29-602): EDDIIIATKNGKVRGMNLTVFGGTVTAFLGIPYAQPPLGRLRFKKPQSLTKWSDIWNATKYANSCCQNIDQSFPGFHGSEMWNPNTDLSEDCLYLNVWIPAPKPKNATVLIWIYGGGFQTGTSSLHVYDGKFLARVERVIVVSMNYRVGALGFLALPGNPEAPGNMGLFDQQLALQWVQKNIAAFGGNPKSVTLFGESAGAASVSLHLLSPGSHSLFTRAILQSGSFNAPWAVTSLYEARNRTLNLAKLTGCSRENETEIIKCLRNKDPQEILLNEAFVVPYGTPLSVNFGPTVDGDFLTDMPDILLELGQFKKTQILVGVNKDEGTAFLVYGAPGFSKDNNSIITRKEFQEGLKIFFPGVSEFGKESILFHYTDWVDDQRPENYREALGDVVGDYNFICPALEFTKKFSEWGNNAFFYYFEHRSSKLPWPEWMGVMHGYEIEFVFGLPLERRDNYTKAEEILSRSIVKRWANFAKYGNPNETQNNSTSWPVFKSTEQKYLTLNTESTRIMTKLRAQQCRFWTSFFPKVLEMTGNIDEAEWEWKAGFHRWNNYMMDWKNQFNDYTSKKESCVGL
Experimental: The activities of hAChE and hBChE were determined using a modified Ellman's method, as described in ref. [56] and [62] against recombinant AChE (hAChE, E.C. 3.1.1.7) and recombinant BChE (hBChE, E.C. 3.1.1.8), both of which were purchased from Sigma-Aldrich, Prague, Czech Republic. […] The other compounds used, including the phosphate buffer solution (PBS, pH = 7.4), 5,5′-dithio-bis(2-nitrobenzoic) acid (Ellman's reagent, DTNB), acetylthiocholine (ATChI), and butyrylthiocholine (BTChI), were commercially available and purchased from Sigma-Aldrich in Prague, Czech Republic. In brief, the corresponding enzyme (8.3 μL), 5 mM DTNB (283 μL), and the sample dilution in dimethyl sulfoxide (DMSO) at various concentrations (8.3 μL) were added to 96-well microplates (BRAND GMBH + CO KG, Wertheim, Germany) and pre-incubated for 5 minutes in the assay medium. The reaction was initiated by adding 10 mM substrate (ATChI or BTChI, 33.3 μL). […] Each measurement was repeated in triplicate. The percentage of inhibition was calculated using the following formula: [drawing 8] where ΔABl represents the increase in absorbance of the blank sample, and ΔASa represents the increase in absorbance of the measured sample. […] Microsoft Excel (Redmond, WA, USA) and GraphPad Prism version 7 for Windows (GraphPad Software, San Diego, CA, USA) were used for the statistical data evaluation.

`CNC(=O)Oc1ccc2c(c1)[C@]1(C)CCN(C)[C@@H]1N2C` [Eserine, reference compound]: the inhibition at 10 µM turned out to be 96 ± 0.3%.
As to `COc1ccccc1CCNCc1ccc(OCc2ccccc2)cc1` [Compound 29, {[4-(Benzyloxy)phenyl]methyl}[2-(2-methoxyphenyl)ethyl]amine], the IC50 is 800 ± 200 nM. Besides, under setting [1], the inhibition at 10 µM worked out at 89 ± 0.9%.
The corresponding values for `c1ccc(COc2ccc(CNCc3ccccn3)cc2)cc1` [Compound 36, {[4-(Benzyloxy)phenyl]methyl}[(pyridin-2-yl)methyl]amine] are more than 10000 nM and 18 ± 0.5%.
In the case of `CCCN(Cc1ccc(OCc2ccccc2)cc1)C(C)CCc1ccccc1` (stereo not drawn) [Compound 47, {[4-(Benzyloxy)phenyl]methyl}(4-phenylbutan-2-yl)propylamine], the IC50 is 1000 ± 300 nM. Also, under setting [1], the inhibition at 10 µM came to 93 ± 0.2%.
`CCN(Cc1ccccc1)Cc1ccc(OCc2ccccc2)cc1` [Compound 43, Benzyl({[4-(benzyloxy)phenyl]methyl})ethylamine]: the IC50 is more than 10000 nM. Besides, the inhibition at 10 µM under setting [1] is 50 ± 1.1%.
For the compound `COc1ccc(CNCc2cccc(OCc3ccccc3)c2)cc1OC` [Compound 15, {[3-(Benzyloxy)phenyl]methyl}[(3,4-dimethoxyphenyl)methyl]amine], the “hBChE inhibitory activity (in words)” value is “completely inactive” and the IC50 was more than 10000 nM. For the same compound, the inhibition at 10 µM under setting [1] was determined as 49 ± 1.4%.
For the compound `C=CCOc1ccc(CCNCc2cccc(OCc3ccccc3)c2)cc1` [Compound 12, {[3-(Benzyloxy)phenyl]methyl}({2-[4-(prop-2-en-1-yloxy)phenyl]ethyl})amine], the IC50 is 4000 ± 1000 nM. In addition, the inhibition at 10 µM under setting [1] came to 75.5 ± 0.5%.
For `C=CCN(CCc1ccccc1)Cc1cccc(OCc2ccccc2)c1` [Compound 23, {[3-(Benzyloxy)phenyl]methyl}(2-phenylethyl)(prop-2-en-1-yl)amine], the half-maximal inhibitory concentration (IC50) came out at 7700 ± 1700 nM. Moreover, the inhibition at 10 µM under setting [1] came out at 60 ± 0.4%.
In the case of `CC(CNCc1ccc(OCc2ccccc2)cc1)c1ccccc1` (stereo not drawn) [Compound 41, {[4-(Benzyloxy)phenyl]methyl}(2-phenylpropyl)amine], the half-maximal inhibitory concentration (IC50) worked out at 1600 ± 100 nM. The inhibition at 10 µM under setting [1] stood at 88 ± 1%.
Take `COc1ccc2c3c1O[C@H]1C[C@@H](O)C=C[C@@]31CCN(C)C2` [Galantamine, reference compound]: the inhibition at 10 µM amounted to 29 ± 3.5%.
As to `CCN(CCCc1ccccc1)Cc1cccc(OCc2ccccc2)c1` [Compound 24, {[3-(Benzyloxy)phenyl]methyl}(ethyl)(3-phenylpropyl)amine], the IC50 was found to be 600 ± 100 nM. Moreover, the inhibition at 10 µM under setting [1] is 94 ± 0.6%.
For the compound `COc1ccc(CCNCc2cccc(OCc3ccccc3)c2)cc1` [Compound 7, {[3-(Benzyloxy)phenyl]methyl}[2-(4-methoxyphenyl)ethyl]amine], the IC50 was determined as 4800 ± 200 nM. Moreover, under setting [1], the inhibition at 10 µM worked out at 73 ± 0.6%.
Turning to `c1ccc(CNCc2ccc(OCc3ccccc3)cc2)cc1` [Compound 35, Benzyl({[4-(benzyloxy)phenyl]methyl})amine], the IC50 worked out at 2800 ± 600 nM. Moreover, the inhibition at 10 µM under setting [1] was determined as 60 ± 0.1%.
Consider `C=CCN(CCc1ccc(O)cc1)Cc1cccc(OCc2ccccc2)c1` [Compound 8, 4-[2-({[3-(Benzyloxy)phenyl]methyl}(prop-2-en-1-yl)amino)ethyl]phenol], for which the 50% inhibitory concentration (IC50) is 600 ± 100 nM. Besides, the inhibition at 10 µM under setting [1] stood at 92 ± 0.5%.
In the case of `Clc1ccc(CCNCc2ccc(OCc3ccccc3)cc2)cc1` [Compound 32, {[4-(Benzyloxy)phenyl]methyl}[2-(4-chlorophenyl)ethyl]amine], the IC50 came to 700 ± 200 nM. For the same compound, the inhibition at 10 µM under setting [1] was 85 ± 1%.
The corresponding values for `c1ccc(CCCNCc2ccc(OCc3ccccc3)cc2)cc1` [Compound 39, {[4-(Benzyloxy)phenyl]methyl}(3-phenylpropyl)amine] are 700 ± 100 nM and 90 ± 0.3%.
On to `C=CCN(Cc1ccccc1)Cc1cccc(OCc2ccccc2)c1` [Compound 20, Benzyl({[3-(benzyloxy)phenyl]methyl})(prop-2-en-1-yl)amine], for which the IC50 was more than 10000 nM. For the same compound, under setting [1], the inhibition at 10 µM turned out to be 36 ± 0.8%.
On to `COc1ccc(CCNCc2ccc(OCc3ccccc3)cc2)cc1` [Compound 31, {[4-(Benzyloxy)phenyl]methyl}[2-(4-methoxyphenyl)ethyl]amine], for which the IC50 came out at 3000 ± 600 nM. Moreover, the inhibition at 10 µM under setting [1] was 93 ± 0.2%.
For `c1ccc(CCCCNCc2ccc(OCc3ccccc3)cc2)cc1` [Compound 40, {[4-(Benzyloxy)phenyl]methyl}(4-phenylbutyl)amine], in that order: 800 ± 100 nM and 85 ± 0.6%.
Take `C=CCOc1ccc(CCN(CC=C)Cc2cccc(OCc3ccccc3)c2)cc1` [Compound 9, {[3-(Benzyloxy)phenyl]methyl}(prop-2-en-1-yl){2-[4-(prop-2-en-1-yloxy)phenyl]ethyl}amine]: the “hBChE inhibitory activity (in words)” value is “complete loss of hBChE inhibitory activity” and the IC50 was more than 10000 nM. Further, under setting [1], the inhibition at 10 µM was 46 ± 1.7%.
Turning to `c1ccc(CCNCc2cccc(OCc3ccccc3)c2)cc1` [Compound 16, {[3-(Benzyloxy)phenyl]methyl}(2-phenylethyl)amine], the IC50 came to 600 ± 100 nM. Also, the inhibition at 10 µM under setting [1] was determined as 91 ± 0.9%.
Consider `CCCN(CCc1ccccc1)Cc1cccc(OCc2ccccc2)c1` [Compound 22, {[3-(Benzyloxy)phenyl]methyl}(2-phenylethyl)propylamine], for which the IC50 was 700 ± 100 nM. In addition, under setting [1], the inhibition at 10 µM turned out to be 81 ± 0.8%.
For `COc1cccc(CCNCc2cccc(OCc3ccccc3)c2)c1` [Compound 6, {[3-(Benzyloxy)phenyl]methyl}[2-(3-methoxyphenyl)ethyl]amine], in that order: 2700 ± 200 nM and 78 ± 0.4%.
In the case of `c1ccc(CCNCc2ccc(OCc3ccccc3)cc2)cc1` [Compound 37, {[4-(Benzyloxy)phenyl]methyl}(2-phenylethyl)amine], the IC50 turned out to be 2000 ± 300 nM. Further, under setting [1], the inhibition at 10 µM is 81 ± 1.4%.
Consider `C=CCN(CCCc1ccccc1)Cc1cccc(OCc2ccccc2)c1` [Compound 26, {[3-(Benzyloxy)phenyl]methyl}(3-phenylpropyl)(prop-2-en-1-yl)amine], for which the IC50 is 1200 ± 300 nM. Besides, the inhibition at 10 µM under setting [1] stood at 76 ± 1.7%.
With `COc1cccc(CCNCc2ccc(OCc3ccccc3)cc2)c1` [Compound 30, {[4-(Benzyloxy)phenyl]methyl}[2-(3-methoxyphenyl)ethyl]amine], the IC50 came out at 4900 ± 1000 nM. In addition, the inhibition at 10 µM under setting [1] stood at 66 ± 0.1%.
On to `c1ccc(CCCNCc2cccc(OCc3ccccc3)c2)cc1` [Compound 17, {[3-(Benzyloxy)phenyl]methyl}(3-phenylpropyl)amine], for which the IC50 amounted to 600 ± 100 nM. Moreover, under setting [1], the inhibition at 10 µM was found to be 89 ± 1.8%.
For the compound `CCCOc1ccc(CCN(CCC)Cc2ccc(OCc3ccccc3)cc2)cc1` [Compound 34, {[4-(Benzyloxy)phenyl]methyl}[2-(4-propoxyphenyl)ethyl]propylamine], the “hBChE inhibitory activity (in words)” value is given as “complete loss of hBChE inhibitory activity” and the IC50 is more than 10000 nM. Also, the inhibition at 10 µM under setting [1] worked out at 30 ± 0.9%.
Turning to `Clc1cccc(NCc2cccc(OCc3ccccc3)c2)c1` [Compound 13, N-{[3-(Benzyloxy)phenyl]methyl}-3-chloroaniline], the “hBChE inhibitory activity (in words)” value was “completely inactive” and the IC50 is more than 10000 nM. Moreover, the inhibition at 10 µM under setting [1] stood at 7.5 ± 0.4%.
